Columns and labels:
[1] = tested on: luciferase-labeled, triple-negative MDA-MB-231 cells; assay: Orthotopic mammary fat pad xenograft, bioluminescent tumor burden; type: in vivo, mouse; conditions: day 28; LBH589 2.5 mg/kg, rosiglitazone 10 mg/kg or both, i.p. five days per week for four weeks; control 9.9 ± 6.2
Procedure: Female NCr nude mice (CrTac:NCr-Foxn1nu) aged 7 weeks were purchased from InVivos, Singapore. […] Mice were acclimatized to laboratory conditions for a minimum of 3 days prior to study initiation. All surgical procedures were performed under strict aseptic conditions according to the protocol approved by the SingHealth Institutional Animal Care and Use Committee (IACUC). […] A 1-cm incision was made at the abdominal mammary fat pad area. […] The incision was closed with wound clips (Stoelting Co, USA). To relieve post-surgical pain and prevent dehydration following surgery, 1 ml of 2 mg/ml meloxicam (Troy Ilium, Australia), diluted in 0.9% saline (B. Braun, Germany) was administered subcutaneously at the right flank of mice after surgery. Mice were recovered on a heating pad until fully awake from anesthesia before being returned to cages. Tumor growth was screened by imaging from the ventral view using the Xenogen IVIS system (Caliper Life Sciences, CA, USA). […] Bioluminescent signals around the tumor sites were identified and quantified as total photon counts using Living Image 4.2 software (Xenogen). […] The bodyweight of mice was measured prior to drug administration. Tumor growth was monitored twice a week using the Xenogen IVIS system throughout the entire 28 days of treatment. […]

Cellular IC50 of LBH589 = type: cell-based
MDA-MB-231 CAM tumor = assay: Chick chorioallantoic membrane (CAM) tumor vascularization, ultrasound imaging; type: in vivo; conditions: single treatments, 48 h
Procedure: On Embryonic Day 3, a sharp weighted tool was used to poke a hole at the apex of the eggshell, and 3 mL of albumin was removed using a 5 ml syringe and 18G needle in order to drop the chick chorioallantoic membrane (CAM). The sharp-weighted tool was then used to poke a hole in the middle of the egg before using curved scissors to cut a 1cm2 hole. The eggs were screened, and dead embryos were removed.
On Embryonic Day 7, MDA-MB-231 cells were prepared for inoculation onto the CAM. DMEM was aspirated, cells were washed with PBS before the addition of 1 ml of 2.5 g/l Trypsin/EDTA solution onto the culture dish. The cells were then removed into a 15 ml Falcon tube and centrifuged for 3 min at 1200 rpm, before the supernatant was removed. Matrigel was added to the cell pellet on ice to resuspend the pellet, before the addition of 2 × 10^6 cells in a 50 µl of Matrigel-cell mixture onto CAM. […]
On Embryonic Day 10, the Tegaderm membrane was removed and Aquasonic gel was added onto the cling wrap which was carefully placed over the CAM. […] Tumor volumes and percentage vasculature were calculated by the Vevo Lab 1.7.0 programme.
Twenty microliters of single or combination treatments of LBH589 and rosiglitazone were added onto a 3.5 mm diameter autoclaved filter paper placed next to the formed tumor on the CAM. […] Percentage changes were calculated based on before and after drug treatment.

PPARγ [2] = assay: PPRE-luciferase reporter assay (PPARγ activity); type: cell-based, human; conditions: MCF7, T47D, MDA-MB-231 and BT549 cells; 0, 50, 100 nM LBH589, 16 h
Text: We took advantage of the fact that downstream genes targeted by this transcription factor contain peroxisome proliferator response elements (PPRE), where it binds. […] To provide assurance that the enhanced bioluminescence is attributable to PPARγ receptor activation rather than some off-target consequence of pan-HDAC inhibition, we repeated the luciferase assays but modified the experiments to eliminate the contribution of PPARγ (Supplementary Results: Part S2).

PPARγ [3] = assay: Immunoprecipitation of FLAG-tagged PPARγ, acetyl-lysine immunoblot; type: cell-based, human; conditions: MCF7 cells, 50 nM LBH589, first hour; overall FLAG-tagged PPARγ unchanged
Procedure: For detection of acetylation of PPARγ, immunoprecipitation with PPARγ was performed. Cells were seeded at […] density and transfected with FLAG-tagged PPARγ before treatment with LBH589. Cells were harvested and cell pellets were lysed in immunoprecipitation (IP) lysis buffer (pH 8). Two hundred and fifty micrograms of proteins were pre-cleared with magnetic G beads (Millipore, Bedford, MA) for 1 h before rotating with 1 μg of FLAG antibody or normal rabbit IgG overnight at 4 °C. Magnetic G beads were added to the mixture the next day and rotated for 1.5 h. Magnetic-enriched IP samples were washed four times in cold wash buffer (200 mM Tris [pH 8.0], 100 mM NaCl, 0.5% NP-40, 2 mM DTT, 0.5 mM PMSF, 1 mM sodium orthovanadate, 1 μg/ml leupeptin, and 1 μg/ml aprotinin) at 10 min intervals. Samples were then boiled in 5× SDS loading buffer and subjected to SDS-PAGE. Proteins were then transferred to PVDF membranes and detected for acetyl-lysine.

PPARγ [4] = assay: PPARγ mRNA and protein expression (RT-PCR, western blot); type: cell-based, human; conditions: MCF7 and MDA-MB-231, 50 nM LBH589, from the 3 h mark to 18 h
Procedure: Total RNA was isolated from cells using TRIZOL reagent (Invitrogen, Carlsbad, CA, USA), as described in the manufacturer’s instructions with a DNAse treatment step incorporated into the protocol. Each RT reaction contained 2.5 µg of total RNA, 1× RT buffer, 5 mM MgCl2, 425 µM each of dNTPs, 2 µM random hexamers, 0.35U/µl RNase inhibitor, and 1.1U/µl MultiScribe™ reverse transcriptase and made up to 10 µl with sterile water. The RT reaction was carried out at 37 °C for 1 h. Five microlitres of the 10 µl cDNA reaction volume were used in real-time quantitative PCR using ABI PRISM 7500 (Applied Biosystems, Foster City, CA, USA). Normalization was endogenous 18S. Fluorescence was measured with the Sequence Detection Systems 2.0 software. PCR was performed in multiplex (both target and endogenous control co-amplified in the same reaction) with distinct fluorescent dyes. Primers and probes for human 18S, human PPARγ, BIRC5, CyclinD1, VEGFA, and MnSOD were purchased from Applied Biosystems (Assays on Demand).

ERα = ERα receptor expression (western blot); type: cell-based, human; conditions: ER-positive cell lines MCF7 and T47D
[5] = mouse, in vivo, ip, 7.5 mg/kg
Procedure: (§1) A total of 39 mice were randomly assigned to 5 treatment groups with at least 7 animals in each group. Mice were treated with vehicle (10% DMSO), 2.5 mg/kg or 7.5 mg/kg of LBH589, 10 mg/kg, or 20 mg/kg of Rosiglitazone via i.p. injection five days per week. The animals were evaluated for changes in clinical signs (stooling, activity level, and body weight). Bodyweight was measured prior to dosing and mice were monitored regularly for any signs of distress after drug administration. All mice were humanely euthanized after 24 days.

[6] = tested on: untransformed human breast epithelial cell lines MCF10A and MCF12A; assay: PPARγ expression, activity and cell viability in normal breast epithelial cells; conditions: 0, 50, 100 nM LBH589, 24 h
Procedure: Whole-cell lysates were prepared with RIPA lysis buffer containing 10 mM Tris-HCL pH7.4, 30 mM NaCl, 1 mM EDTA, 1% Nonidet P-40, supplemented with 1 mM sodium orthovanadate (Na3VO4), 1 µg/ml leupeptin, 1 µg/ml pepstatin A, 1 µg/ml aprotinin, and 1 mM PMSF before use. […] Thereafter, proteins were transferred onto nitrocellulose membranes, blocked for 1 h at room temperature with 5% non-fat milk, and incubated overnight at 4 °C with the primary antibody. After probing with a secondary antibody for 1 h at 25 °C, protein bands were detected by using the Supersignal West Pico Chemiluminescent substrate kit. β-actin antibody was used as a loading control.
The luciferase reporter construct used was pPPRE-tk-Luc, which contains three PPREs from the rat acyl-CoA oxidase promoter under the control of the Herpes simplex virus thymidine kinase promoter (kind gift from Dr. Ronald M. Evans, The Salk Institute for Biological Studies, San Diego, CA, USA). 3× PPRE promoter activities were assessed with a dual-luciferase assay kit. […] Ten microlitres of cell lysate were then added to 50 μl of the luciferase substrate solution, following which 50 μl of stop and glow buffer was added for Renilla reading. Bioluminescence generated was measured using a Sirius luminometer (Berthold, Munich, Germany). The luminescence readings obtained were normalized to the protein content of the corresponding cell lysate. […]

[7] = Toxicity study in NCr nude mice; conditions: LBH589 2.5 or 7.5 mg/kg, rosiglitazone 10 or 20 mg/kg, i.p. five days per week, three-week cycle
Procedure: as §1

IC50 (Cellular IC50 of LBH589) [nM] | PPRE-luciferase reporter activity (PPARγ [2]) | clinical signs (weight gain, stooling) compared to lower dosage or placebo [5] | SMILES | relative tumor burden (fold change in bioluminescent signal normalized to pre-treatment radiance levels) [1] [fold] | CAM tumor volume / tumor size compared to DMSO control (MDA-MB-231 CAM tumor) | changes in CAM vascular volumes compared to DMSO (MDA-MB-231 CAM tumor) | acetylated PPARγ (PPARγ [3]) | intracellular PPARγ mRNA and protein (PPARγ [4]) | ERα receptor expression (ERα) | PPARγ expression and activity [6] | loss of original bodyweight [7] [%]
50 | dose-dependently enhanced | less weight gain and softer stools | Cc1[nH]c2ccccc2c1CCNCc1ccc(/C=C/C(=O)NO)cc1 [LBH589] | 5.8 ± 3.7 | did not have any significant effects | No significant changes | marked initial accumulation | steady and gradual rise | dose-dependently suppressed | did not upregulate PPARγ expression or augment its activity | 
 |  |  | CN(CCOc1ccc(CC2SC(=O)NC2=O)cc1)c1ccccn1 (stereo not drawn) [rosiglitazone] | 5.3 ± 0.8 |  |  |  |  |  |  | ≤ 10

— article PMC8476547, “Epigenetic derepression converts PPARγ into a druggable target in triple-negative and endocrine-resistant breast cancers” (Cell Death Discovery, 2021)
